Test system: MMP9
Assay: MMP9 production by human alveolar macrophages cultured on fibronectin (gelatin zymography)
Assay type: cell-based
Details: PTA2 1.25, 6.25 and 25 μM, dose-dependent
Text: FIG. 14. Human alveolar macrophages produce TXB2 when cultured on fibronectin and thromboxane receptor signaling is required for MMP9 production. A, TXB2 production measured in conditioned media from human macrophages cultured on fibronectin (closed bars) or plastic (open bars) at the indicated cellular concentrations. B, TXB2 measured in conditioned media from macrophages cultured at 0.125×10^6 cells/ml on either plastic (ctl) or FN from four individuals. The data represent the means±S.E. C, gelatin zymogram of conditioned media from cells cultured as indicated and in the presence of increasing doses of the thromboxane receptor antagonist PTA2 (at 1.25, 6.25, and 25 μM, respectively). Below the zymogram is quantitation of MMP9 activity by densitometric analysis.
Tissue-culture 96-well plates (Costar high binding catalogue number 3590) were coated with 10 μg/ml of murine fibronectin (Molecular Innovations, Nori, Minn.; catalogue number MFBN) or human fibronectin (Molecular Innovations; catalogue number HFBN) in DPBS without Ca^2+ or Mg^2+ (Mediatech, Inc., Manassas, Va.) for 2 h at room temperature. […] PGE2 and TXB2 were measured in conditioned medium by ELISA according to the manufacturer's instructions (ElisaTech, Aurora, Colo.). […]
For other human studies, we quantitated MMP9 by ELISA in conditioned medium (ELISA TECH, Aurora, Colo.). […]

Structure (SMILES): CCCCC[C@@H](O)/C=C/[C@H]1C[C@H]2C[C@@H]([C@@H]1C/C=C\CCCC(=O)O)C2(C)C (relative stereo) [PTXA2, (18-(1alpha,2beta(Z),3alpha(1E,3S*),5alpha))-7-(3-(3-Hydroxy-1-octenyl)-6,6-dimethylbicyclo(3.1.1)hept-2-yl)-5-heptenoic acid]
- inhibition of MMP9 production: ~90%

From patent US9820951B2, “Pulmonary disease treatment and diagnosis based on Arhgef1” (NATIONAL JEWISH HEALTH, A NON-PROFIT ORGANIZATION, priority 2011, dated 2017)
